Data taken from patent publication US6121330A, “5-Hydroxyalkyl substituted phenyls and their use in medicaments for the treatment of arteriosclerosis and hyperlipoproteinaemia” (Bayer Aktiengesellschaft, priority 1997, dated 2000).
pIC50: −log10 of the molar value.

Legend:
[1] = biological target: T1, cholesterol ester transfer protein (CETP) (Homo sapiens, UniProt P11597); experiment: CETP inhibition testing (transfer of 3H-cholesterol ester from human HD lipoproteins to biotinylated LD lipoproteins); type: biochemical; conditions: CETP partially purified from human plasma; 3H-cholesterol ester transfer HDL to biotin-LDL, 37° C., 18 h
T1 construct: CETP is obtained from human plasma in partially purified form by differential centrifugation and column chromatography; from tissue; host or cells: human plasma
T1 sequence (P11597 18-493): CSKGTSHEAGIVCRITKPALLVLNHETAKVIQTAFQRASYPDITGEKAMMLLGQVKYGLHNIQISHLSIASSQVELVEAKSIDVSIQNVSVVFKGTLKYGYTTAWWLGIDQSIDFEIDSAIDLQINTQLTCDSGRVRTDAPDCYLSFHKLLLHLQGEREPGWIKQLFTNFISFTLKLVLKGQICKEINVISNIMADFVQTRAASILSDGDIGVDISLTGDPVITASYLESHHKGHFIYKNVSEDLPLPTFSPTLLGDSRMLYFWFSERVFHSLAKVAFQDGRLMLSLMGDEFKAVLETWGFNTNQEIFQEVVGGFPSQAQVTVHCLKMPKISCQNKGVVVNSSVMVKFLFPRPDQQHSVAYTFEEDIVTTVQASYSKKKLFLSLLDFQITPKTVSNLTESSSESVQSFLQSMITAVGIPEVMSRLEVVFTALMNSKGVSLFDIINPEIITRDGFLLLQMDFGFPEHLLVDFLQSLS
Protocol: CETP is obtained from human plasma in partially purified form by differential centrifugation and column chromatography and used for the test. To this end, human plasma is adjusted to a density of 1.21 g per ml using NaBr and centrifuged at 4° C. for 18 h at 50,000 rpm. The bottom fraction (d>1.21 g/ml) is applied to a Sephadex®phenyl-sepharose 4B (Pharmacia) column, washed with 0.15 M NaCl/0.001 M trisHCl pH 7.4 and then eluted with distilled water. The CETP-active fractions are pooled, dialyzed against 50 mM Na acetate pH 4.5 and applied to a CM-Sepharose® (Pharmacia) column. The column is then eluted using a linear gradient (0-1 M NaCl). The pooled CETP fractions are dialyzed against 10 mM tris HCl pH 7.4 and then further purified by chromatography on a Mono Q® column (Pharmacia).
Obtainment of Radiolabelled HDL
50 ml of fresh human EDTA plasma is adjusted to a density of 1.12 using NaBr and centrifuged at 50,000 rpm for 18 h at 4° C. in a Ty 65 rotor. The upper phase is used to obtain cold LDL. The lower phase is dialyzed against 3×4 l of PDB buffer (10 mM tris/HCl pH 7.4, […], 1 mM EDTA, 0.02% NaN3). 20 μl of 3H-cholesterol (Dupont NET-725; 1 μC/μl dissolved in ethanol!) are then added per 10 ml of retentate volume and the mixture is incubated under N2 at 37° C. for 72 h. […]
To test the CETP activity, the transfer of ^3 H-cholesterol ester from human HD lipoproteins to biotinylated LD lipoproteins is measured.
The reaction is ended by addition of streptavidin-SPA® beads (Amersham) and the transferred radioactivity is determined directly in a liquid scintillation counter.
In the test mixture, 10 μl of HDL-^3 H-cholesterol ester (~50,000 cpm) are incubated at 37° C. for 18 h with 10 μl of biotin-LDL (Amersham) in 50 mM Hepes/0.15 M NaCl/0.1% bovine serum albumin/0.05% NaN3 pH 7.4 with 10 μl of CETP (1 mg/ml) and 3 μl of solution of the substance to be tested dissolved (in 10% DMSO/1% RSA). 200 μl of the SPA-streptavidin bead solution (TRKQ 7005) are then added, the mixture is incubated further for 1 h with shaking and then measured in the scintillation counter. […]

HDL cholesterol = experiment: HDL rise in in vivo experiments (oral administration); design: species or system Syrian golden hamster; conditions: oral (stomach tube), 2 × 30 mg/kg/d
Protocol: In Vivo Activity of the Compounds According to the Invention
In experiments to determine the oral action on lipoproteins and triglycerides, test substance dissolved in DMSO and 0.5% Tylose suspended by means of a stomach tube are administered orally to Syrian golder hamsters from in-house breeding. To determine the CETP activity, blood (about 250 μl) is taken by retroorbital puncture before the start of the experiment. The test substances are then administered orally by means of a stomach tube. The control animals receive identical volumes of solvent without test substance. […]
Clotting is ended by incubation at 4° C. overnight, then centrifugation at 6000×g is carried out for 10 minutes. In the serum thus obtained, the content of cholesterol and triglycerides is determined with the aid of modified commercially available enzyme tests (cholesterol enzymatic 14366 Merck, triglycerides 14364 Merck). […]
100 μl of serum dilution are mixed with 100 μl of […] in 96-hole plates and incubated at room temperature for 10 minutes. The optical density is then determined at a wavelength of 492 nm using an automatic plate-reading apparatus. The triglyceride or cholesterol concentration contained in the samples is determined with the aid of a standard curve measured in parallel. […]

Compound	pIC50 [1]	% HDL rise (HDL cholesterol) [%]
OCc1c(-c2ccc(F)cc2)cc(C2CCCC2)c(C(F)c2ccc(C(F)(F)F)cc2)c1-c1ccc(F)cc1 (stereo not shown) [Example 1]	7.05	–
CC(C)c1cc(-c2ccc(F)cc2)c(CO)c(-c2ccc(F)cc2)c1C(F)c1ccc(C(F)(F)F)cc1 (stereo not shown) [Example 3]	7.00	21
CC(C)c1cc(-c2ccc(F)cc2)c(CO)c(-c2ccc(F)cc2)c1C(=O)c1ccc(C(F)(F)F)cc1 [Example 4]	5.40	–
